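1) Cells in 96-well plates. 2) Compound, 48 h, 5 concentrations. 3) Linear interpolation between surrounding doses. 4) Unreached endpoint = highest concentration. GI50 is the concentration that inhibits growth by half. TGI is the concentration that stops growth completely.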
What was measured:
Test in all cases: growth of human tumour cells (NCI), 48 h; in the data active means GI50 below about 0.43 µM; inactive means the rest
MOLT-4 leukemia = test system: MOLT-4 leukemia
DU-145 prostate = test system: DU-145 prostate
RXF 393 renal = test system: RXF 393 renal
NCI/ADR-RES ovarian = test system: NCI/ADR-RES ovarian
A498 renal = test system: A498 renal
HL-60(TB) leukemia = test system: HL-60(TB) leukemia
SN12C renal = test system: SN12C renal
SR leukemia = test system: SR leukemia
SF-539 CNS = test system: SF-539 CNS
ACHN renal = test system: ACHN renal
MDA-MB-435 = test system: MDA-MB-435
NCI-H460 lung = test system: NCI-H460 lung
HCC-2998 colon = test system: HCC-2998 colon
SNB-75 CNS = test system: SNB-75 CNS
M14 melanoma = test system: M14 melanoma
COLO 205 colon = test system: COLO 205 colon
HOP-92 NSCLC = test system: HOP-92 NSCLC
NCI-H522 lung = test system: NCI-H522 lung
NCI-H23 lung = test system: NCI-H23 lung
EKVX NSCLC = test system: EKVX NSCLC
SNB-19 CNS = test system: SNB-19 CNS
MDA-MB-231 breast = test system: MDA-MB-231 breast
OVCAR-4 ovarian = test system: OVCAR-4 ovarian
UO-31 renal = test system: UO-31 renal
UACC-257 melanoma = test system: UACC-257 melanoma
KM12 colon = test system: KM12 colon
HCT-116 colon = test system: HCT-116 colon
SK-OV-3 ovarian = test system: SK-OV-3 ovarian
CAKI-1 renal = test system: CAKI-1 renal
T-47D breast = test system: T-47D breast
SK-MEL-2 melanoma = test system: SK-MEL-2 melanoma
OVCAR-5 ovarian = test system: OVCAR-5 ovarian
OVCAR-3 ovarian = test system: OVCAR-3 ovarian
786-0 renal = test system: 786-0 renal
A549 NSCLC = test system: A549 NSCLC
NCI-H226 lung = test system: NCI-H226 lung
MALME-3M melanoma = test system: MALME-3M melanoma
TK-10 renal = test system: TK-10 renal
LOX IMVI melanoma = test system: LOX IMVI melanoma
BT-549 breast = test system: BT-549 breast
SW-620 colon = test system: SW-620 colon
U251 CNS = test system: U251 CNS
IGROV1 ovarian = test system: IGROV1 ovarian
HT29 colon = test system: HT29 colon
HS 578T breast = test system: HS 578T breast
SF-295 CNS = test system: SF-295 CNS
K-562 leukemia = test system: K-562 leukemia
SF-268 CNS = test system: SF-268 CNS
SK-MEL-5 melanoma = test system: SK-MEL-5 melanoma
SK-MEL-28 melanoma = test system: SK-MEL-28 melanoma
HOP-62 NSCLC = test system: HOP-62 NSCLC
OVCAR-8 ovarian = test system: OVCAR-8 ovarian
HCT-15 colon = test system: HCT-15 colon
RPMI-8226 leukemia = test system: RPMI-8226 leukemia
MCF7 breast = test system: MCF7 breast
CCRF-CEM leukemia = test system: CCRF-CEM leukemia

CC(C)=C[C@@H]1C[C@H](C)[C@H]2CC[C@H](C)c3c(O)c(OC4OCC(O)C(O)C4O)c(C)c1c32 (stereo partly drawn)
25.8 µM: TGI (MCF7 breast)
28.9 µM: TGI (TK-10 renal)
24.9 µM: TGI (SF-268 CNS)
34.8 µM: TGI (786-0 renal)
20.5 µM: TGI (SR leukemia) | TGI (K-562 leukemia)
34.6 µM: TGI (SF-539 CNS)
33 µM: TGI (OVCAR-8 ovarian)
32.1 µM: TGI (HS 578T breast)
30.2 µM: TGI (NCI-H522 lung)
24 µM: TGI (DU-145 prostate)
23.4 µM: TGI (RXF 393 renal)
25.3 µM: TGI (KM12 colon)
22.7 µM: TGI (A549 NSCLC)
29.6 µM: TGI (U251 CNS)
28.1 µM: TGI (T-47D breast)
31.6 µM: TGI (UO-31 renal)
24.5 µM: TGI (HL-60(TB) leukemia)
19.8 µM: TGI (HCC-2998 colon)
21.9 µM: TGI (NCI/ADR-RES ovarian)
21.8 µM: TGI (SN12C renal)
29.7 µM: TGI (COLO 205 colon)
27.7 µM: TGI (SK-MEL-28 melanoma)
24.3 µM: TGI (MDA-MB-435) | TGI (OVCAR-3 ovarian) | TGI (IGROV1 ovarian)
28.4 µM: TGI (HCT-116 colon)
39.9 µM: TGI (BT-549 breast)
33.3 µM: TGI (EKVX NSCLC)
33.6 µM: TGI (HOP-62 NSCLC)
24.7 µM: TGI (NCI-H460 lung) | TGI (HOP-92 NSCLC) | TGI (HT29 colon)
36.4 µM: TGI (SK-MEL-2 melanoma)
27.6 µM: TGI (MALME-3M melanoma)
19.7 µM: TGI (MOLT-4 leukemia) | TGI (UACC-257 melanoma)
25.5 µM: TGI (NCI-H23 lung)
26.3 µM: TGI (MDA-MB-231 breast)
26.9 µM: TGI (HCT-15 colon)
25 µM: TGI (SK-MEL-5 melanoma)
39.3 µM: TGI (M14 melanoma)
29.3 µM: TGI (SW-620 colon) | TGI (SF-295 CNS)
33.2 µM: TGI (SK-OV-3 ovarian)
inactive: GI50 (MOLT-4 leukemia) 5.24 µM | GI50 (DU-145 prostate) 11.8 µM | GI50 (RXF 393 renal) 10.9 µM | GI50 (NCI/ADR-RES ovarian) 10.2 µM | GI50 (A498 renal) 13.4 µM | GI50 (HL-60(TB) leukemia) 10.9 µM | GI50 (SN12C renal) 10.2 µM | GI50 (SR leukemia) 6.92 µM | GI50 (SF-539 CNS) 18.7 µM | GI50 (ACHN renal) 14.6 µM | GI50 (MDA-MB-435) 11.4 µM | GI50 (NCI-H460 lung) 12.3 µM | GI50 (HCC-2998 colon) 4.43 µM | GI50 (SNB-75 CNS) 12.7 µM | GI50 (M14 melanoma) 15.8 µM | GI50 (COLO 205 colon) 15.5 µM | GI50 (HOP-92 NSCLC) 12.3 µM | GI50 (NCI-H522 lung) 16.4 µM | GI50 (NCI-H23 lung) 12.8 µM | GI50 (EKVX NSCLC) 18.8 µM | GI50 (SNB-19 CNS) 16.2 µM | GI50 (MDA-MB-231 breast) 13.5 µM | GI50 (OVCAR-4 ovarian) 9.39 µM | GI50 (UO-31 renal) 17.8 µM | GI50 (UACC-257 melanoma) 6.44 µM | GI50 (KM12 colon) 12.7 µM | GI50 (HCT-116 colon) 13.9 µM | GI50 (SK-OV-3 ovarian) 18.9 µM | GI50 (CAKI-1 renal) 3.91 µM | GI50 (T-47D breast) 13.3 µM | GI50 (SK-MEL-2 melanoma) 20.8 µM | GI50 (OVCAR-5 ovarian) 12.6 µM | GI50 (OVCAR-3 ovarian) 11.9 µM | GI50 (786-0 renal) 17.9 µM | GI50 (A549 NSCLC) 10.3 µM | GI50 (NCI-H226 lung) 15.8 µM | GI50 (MALME-3M melanoma) 14.1 µM | GI50 (TK-10 renal) 15.4 µM | GI50 (LOX IMVI melanoma) 15 µM | GI50 (BT-549 breast) 21.6 µM | GI50 (SW-620 colon) 15.9 µM | GI50 (U251 CNS) 16.1 µM | GI50 (IGROV1 ovarian) 12 µM | GI50 (HT29 colon) 11.7 µM | GI50 (HS 578T breast) 15.4 µM | GI50 (SF-295 CNS) 14.2 µM | GI50 (K-562 leukemia) 5.73 µM | GI50 (SF-268 CNS) 12.4 µM | GI50 (SK-MEL-5 melanoma) 12.3 µM | GI50 (SK-MEL-28 melanoma) 14.4 µM | GI50 (HOP-62 NSCLC) 18.2 µM | GI50 (OVCAR-8 ovarian) 16.6 µM | GI50 (HCT-15 colon) 14 µM | GI50 (RPMI-8226 leukemia) 10.8 µM | GI50 (MCF7 breast) 13.1 µM
25.9 µM: TGI (SNB-75 CNS)
30.6 µM: TGI (NCI-H226 lung)
29.8 µM: TGI (SNB-19 CNS)
22.1 µM: TGI (OVCAR-4 ovarian)
27.5 µM: TGI (A498 renal)
22.9 µM: TGI (RPMI-8226 leukemia)
27.8 µM: TGI (ACHN renal)
25.2 µM: TGI (OVCAR-5 ovarian)
28.2 µM: TGI (LOX IMVI melanoma)
18.7 µM: TGI (CAKI-1 renal)

CS(=O)(=O)OCCn1c2c(c3c(O)cccc31)C(=O)c1ccccc1-2
> 100 µM: TGI (MOLT-4 leukemia) | TGI (DU-145 prostate) | TGI (RXF 393 renal) | TGI (NCI/ADR-RES ovarian) | TGI (A498 renal) | TGI (HL-60(TB) leukemia) | TGI (SN12C renal) | TGI (SR leukemia) | TGI (SF-539 CNS) | TGI (ACHN renal) | TGI (MDA-MB-435) | TGI (NCI-H460 lung) | TGI (HCC-2998 colon) | TGI (SNB-75 CNS) | TGI (M14 melanoma) | TGI (COLO 205 colon) | TGI (HOP-92 NSCLC) | TGI (NCI-H522 lung) | TGI (NCI-H23 lung) | TGI (EKVX NSCLC) | TGI (SNB-19 CNS) | TGI (MDA-MB-231 breast) | TGI (OVCAR-4 ovarian) | TGI (UO-31 renal) | TGI (UACC-257 melanoma) | TGI (KM12 colon) | TGI (HCT-116 colon) | TGI (SK-OV-3 ovarian) | TGI (T-47D breast) | TGI (SK-MEL-2 melanoma) | TGI (OVCAR-5 ovarian) | TGI (OVCAR-3 ovarian) | TGI (A549 NSCLC) | TGI (NCI-H226 lung) | TGI (MALME-3M melanoma) | TGI (TK-10 renal) | TGI (LOX IMVI melanoma) | TGI (CCRF-CEM leukemia) | TGI (BT-549 breast) | TGI (SW-620 colon) | TGI (U251 CNS) | TGI (IGROV1 ovarian) | TGI (HT29 colon) | TGI (HS 578T breast) | TGI (SF-295 CNS) | TGI (K-562 leukemia) | TGI (SF-268 CNS) | TGI (SK-MEL-5 melanoma) | TGI (SK-MEL-28 melanoma) | TGI (HOP-62 NSCLC) | TGI (OVCAR-8 ovarian) | TGI (HCT-15 colon) | TGI (RPMI-8226 leukemia) | TGI (MCF7 breast)
inactive: GI50 (MOLT-4 leukemia) 36.5 µM | GI50 (DU-145 prostate) > 100 µM | GI50 (RXF 393 renal) > 100 µM | GI50 (NCI/ADR-RES ovarian) > 100 µM | GI50 (A498 renal) > 100 µM | GI50 (HL-60(TB) leukemia) 30.9 µM | GI50 (SN12C renal) 33.7 µM | GI50 (SR leukemia) 10.3 µM | GI50 (SF-539 CNS) > 100 µM | GI50 (ACHN renal) 60.3 µM | GI50 (MDA-MB-435) 46 µM | GI50 (NCI-H460 lung) > 100 µM | GI50 (HCC-2998 colon) 36 µM | GI50 (SNB-75 CNS) > 100 µM | GI50 (M14 melanoma) > 100 µM | GI50 (COLO 205 colon) > 100 µM | GI50 (HOP-92 NSCLC) 24.7 µM | GI50 (NCI-H522 lung) 95.1 µM | GI50 (NCI-H23 lung) > 100 µM | GI50 (EKVX NSCLC) > 100 µM | GI50 (SNB-19 CNS) 40.7 µM | GI50 (MDA-MB-231 breast) 20.4 µM | GI50 (OVCAR-4 ovarian) > 100 µM | GI50 (UO-31 renal) > 100 µM | GI50 (UACC-257 melanoma) > 100 µM | GI50 (KM12 colon) 80.2 µM | GI50 (HCT-116 colon) 44.7 µM | GI50 (SK-OV-3 ovarian) 29 µM | GI50 (T-47D breast) 64.7 µM | GI50 (SK-MEL-2 melanoma) > 100 µM | GI50 (OVCAR-5 ovarian) > 100 µM | GI50 (OVCAR-3 ovarian) 66.6 µM | GI50 (A549 NSCLC) > 100 µM | GI50 (NCI-H226 lung) 39.7 µM | GI50 (MALME-3M melanoma) > 100 µM | GI50 (TK-10 renal) > 100 µM | GI50 (LOX IMVI melanoma) 54.1 µM | GI50 (CCRF-CEM leukemia) 37.1 µM | GI50 (BT-549 breast) > 100 µM | GI50 (SW-620 colon) > 100 µM | GI50 (U251 CNS) 77.3 µM | GI50 (IGROV1 ovarian) > 100 µM | GI50 (HT29 colon) 99.8 µM | GI50 (HS 578T breast) > 100 µM | GI50 (SF-295 CNS) 84.3 µM | GI50 (K-562 leukemia) > 100 µM | GI50 (SF-268 CNS) 78.5 µM | GI50 (SK-MEL-5 melanoma) > 100 µM | GI50 (SK-MEL-28 melanoma) > 100 µM | GI50 (HOP-62 NSCLC) 87.1 µM | GI50 (OVCAR-8 ovarian) > 100 µM | GI50 (HCT-15 colon) > 100 µM | GI50 (RPMI-8226 leukemia) 19.7 µM | GI50 (MCF7 breast) > 100 µM

From PubChem BioAssay (NCI)
